Reference: patent publication US11453703B2, “Heterotandem bicyclic peptide complexes” (BicycleTX Limited, priority 2018, dated 2022)

Experiments:
[1] = tested on: human PBMC co-cultured with 4T1-D02 (Nectin4+); assay: Human PBMC-4T1 co-culture (cytokine release) assay; format: cell-based; conditions: anti-CD3 stimulated PBMC, 48 hours
Procedure: Mouse mammary gland tumor cell line 4T1-1 (4T1-Parental) and murine Nectin-4 overexpressing 4T1 (4T1-D02) were cultured in RPMI1640 supplemented with 10% heat-inactivated Fetal Bovine Serum, 100 I.U/ml Penicillin and 100 I.U/Streptomycin, 20 mM HEPES, 1× Non-Essential Amino Acids, and 2 mM L-Glutamine (RPMI working medium). Frozen PBMCs from healthy human donors were thawed and washed one time in room temperature PBS, and then resuspended in RPMI working medium. For tumor cell and PBMC co-culture, 10000 PBMCs and 2000 tumor cells (5:1) were mixed and plated in each well of a 384 well plate. For stimulating human PBMCs, 125 ng/ml of soluble anti-CD3 mAb (clone OKT3) was added to the culture on day 0. Test, control compounds or vehicle controls were added to respective wells and brought the final volume per well to 100u1. Plates were incubated in a 37° C. cell culture incubator with 5% CO2 for up to three days. Supernatants were collected 48 hours after stimulation, and human IL-2 and IFFγ were detected using HTRF assays. Raw data were analyzed using Excel or Prism software to generate standard curves to interpolate protein concentrations. Data represents one study with three different donor PBMC tested in experimental duplicates.

[2] = target: T1, CD137 (Homo sapiens, UniProt Q07011); assay: CD137 reporter assay, co-culture with Nectin-4 tumour cells; format: cell-based; set-up: host or cells: Jurkat reporter cells;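 note: jurkat reporter cells co-cultured with tumour cells and test article for 6 h, luminescence signal relative to Jurkat plus tumour cells lacking test article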
T1 sequence (Q07011 24-255): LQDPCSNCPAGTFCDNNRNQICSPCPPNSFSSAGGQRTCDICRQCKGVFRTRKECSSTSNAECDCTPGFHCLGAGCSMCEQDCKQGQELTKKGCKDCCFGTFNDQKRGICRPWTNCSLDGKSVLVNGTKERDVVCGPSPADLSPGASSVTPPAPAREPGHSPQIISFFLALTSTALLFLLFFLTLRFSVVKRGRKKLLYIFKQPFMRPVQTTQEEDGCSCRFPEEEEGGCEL

[3] = target: T1, CD137; assay: CD137 Biacore (SPR) binding assay; set-up: purchased R&D systems; conditions: biotinylated human CD137, 25° C.
Procedure: Biacore experiments were performed to determine ka (M^−1s^−1), kd (s^−1), KD (nM) values of heterotandem peptides binding to human CD137 protein. […] The protein was desalted to remove uncoupled biotin using spin columns into PBS.
For analysis of peptide binding, a Biacore T200 or a Biacore 3000 instrument was used with a XanTec CMD500D chip. Streptavidin was immobilized on the chip using standard amine-coupling chemistry at 25° C. with HBS-N (10 mM HEPES, 0.15 M NaCl, pH 7.4) as the running buffer. Briefly, the carboxymethyl dextran surface was activated with a 7 min injection of a 1:1 ratio of 0.4 M 1-ethyl-3-(3-dimethylaminopropyl) carbodiimide hydrochloride (EDC)/0.1 M N-hydroxy succinimide (NHS) at a flow rate of 10 μl/min. For capture of streptavidin, the protein was diluted to 0.2 mg/ml in 10 mM sodium acetate (pH 4.5) and captured by injecting 120 μl of onto the activated chip surface. Residual activated groups were blocked with a 7 min injection of 1 M ethanolamine (pH 8.5) and biotinylated CD137 captured to a level of 270-1500 RU. Buffer was changed to PBS/0.05% Tween 20 and a dilution series of the peptides was prepared in this buffer with a final DMSO concentration of 0.5%. The top peptide concentration was 500 nM with 6 further 2-fold or 3-fold dilutions. The SPR analysis was run at 25° C. at a flow rate of 90 μl/min with 60 seconds association and 900 seconds dissociation. After each cycle a regeneration step (10 μl of 10 mM glycine pH 2) was employed. Data were corrected for DMSO excluded volume effects as needed. All data were double-referenced for blank injections and reference surface using standard processing procedures and data processing and kinetic fitting were performed using Scrubber software, version 2.0c (BioLogic Software). Data were fitted using simple 1:1 binding model allowing for mass transport effects where appropriate.

[4] = target: T1, CD137; assay: CD137 reporter assay, co-culture with EphA2 tumour cells; format: cell-based; set-up: host or cells: Jurkat reporter cells; conditions: tumour target EphA2, co-culture with PC3, at 100 nM; read-out: Fold Induction over Background at 100 nM
Summary of the method: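 Jurkat CD137 reporter cells co-cultured with tumour cells and serially diluted test articles in RPMI-1640 + 1% FBS, 6 h at 37 °C, 5% CO2. Luminescence read after Bio-Glo; fold change over cells-only background fitted log(agonist) vs response for EC50 (nM) and maximal fold induction.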

[5] = target: T1, CD137; assay: CD137 reporter assay, co-culture with PD-L1 expressing cell line RKO; format: cell-based; set-up: host or cells: Jurkat reporter cells; conditions: tumour target PD-L1, co-culture with RKO, 6 h
Procedure: Culture medium referred to as R1 media is prepared by adding 1% FBS to RPMI-1640 (component of Promega kit CS196005). Serial dilutions of test articles in R1 are prepared in a sterile 96 well-plate. Use 25 μl per well of test articles or R1 (as a background control) to designated wells in white cell culture plate. Tumour cells* are harvested and resuspended at a concentration of 400,000 cells/mL in R1 media. Twenty five (25) μL/well tumour cells are used in white cell culture plate. Jurkat cells (Promega kit CS196005, 0.5 mL) are thawed in the water bath and then added to 5 ml pre-warmed R1 medium. Twenty five (25) μL/well Jurkat cells are used in white cell culture plate. Incubate the cells and test articles for 6h at 37° C., 5% CO2. At the end of 6 h, add 75 μl/well Bio-Glo™ (Promega) and incubate for 10 min before reading luminescence in a plate reader (Clariostar, BMG). The fold change relative to cells (Jurkat cells+Cell line used in co-culture) is calculated and plotted in GraphPad Prism as log(agonist) vs response to determine EC50 (nM) and Fold Induction over background (Max)

`CCCC[C@@H]1NC(=O)[C@H](Cc2ccc(O)cc2)NC(=O)[C@@H]2CCCN2C(=O)[C@H](CC(=O)O)NC(=O)[C@H](C)NC(=O)[C@H](Cc2ccccc2)NC(=O)[C@@H]2CSCCC(=O)N3CN(CN(C3)C(=O)CCSC[C@@H](C(=O)N[C@@H](CNC(=O)CCOCCOCCOCCOCCOCCOCCOCCOCCOCCOCCOCCOCCn3cc(CCC(=O)NCCC(=O)N(C)CC(=O)N(C)CC(=O)N(C)CC(=O)N(C)CC(=O)N(C)CC(=O)N(C)CC(=O)N(C)CC(=O)N(C)CC(=O)N(C)CC(=O)N(C)CC(=O)N[C@H]4CSCCC(=O)N5CN6CN(C5)C(=O)CCSC[C@H](NC(=O)[C@@H](CC(=O)O)NC(=O)[C@H](Cc5cccc7ccccc57)NC(=O)[C@@H]5CCCN5C4=O)C(=O)N[C@@H](CCSC)C(=O)N[C@@H](CCCCNC(=N)N)C(=O)N[C@@H](CC(=O)O)C(=O)N[C@@H](Cc4c[nH]c5ccccc45)C(=O)N[C@@H](CO)C(=O)N[C@@H]([C@@H](C)O)C(=O)N4CCC[C@H]4C(=O)N4C[C@H](O)C[C@H]4C(=O)N[C@@H](Cc4c[nH]c5ccccc45)C(=O)N[C@H](C(N)=O)CSCCC6=O)nn3)C(N)=O)NC1=O)C(=O)CCSC[C@H](NC(=O)[C@H](C)NC(C)=O)C(=O)N[C@@H]([C@@H](C)CC)C(=O)N[C@@H](CCC(=O)O)C(=O)N[C@@H](CCC(=O)O)C(=O)NCC(=O)N[C@@H](CCC(N)=O)C(=O)N[C@@H](Cc1ccc(O)cc1)C(=O)N2` [BCY8854] was tested, and the EC50 ([1]; IFN-γ secretion) was 0.89 nM, the “max IFN-y” value [1] was 15962 pg/mL and the EC50 [2] was 1.2 nM. For the same molecule, the “Fold Induction over Background” value ([2]; tumour target Nectin4, co-culture with H1376, 6 h) was 30 fold.
`CCCC[C@@H]1NC(=O)[C@H](Cc2ccc(O)cc2)NC(=O)[C@@H]2CCCN2C(=O)[C@H](CC(=O)O)NC(=O)[C@@H](C)NC(=O)[C@H](Cc2ccccc2)NC(=O)[C@@H]2CSCCC(=O)N3CN(CN(C3)C(=O)CCSC[C@@H](C(=O)N[C@@H](CNC(=O)CCOCCOCCOCCOCCOCCOCCOCCOCCOCCOCCOCCOCCn3cc(CCC(=O)NCCC(=O)N(C)CC(=O)N(C)CC(=O)N(C)CC(=O)N(C)CC(=O)N(C)CC(=O)N(C)CC(=O)N(C)CC(=O)N(C)CC(=O)N(C)CC(=O)N(C)CC(=O)N[C@@H](C)C(=O)N[C@@H](CCCCNC(=N)N)C(=O)N[C@@H](CC(=O)O)C(=O)N[C@H]4CSCCC(=O)N5CN6CN(C5)C(=O)CCSC[C@H](NC(=O)[C@H](CC(C)C)NC(=O)[C@@H]5CCCN5C(=O)[C@H](CC(N)=O)NC(=O)[C@H](C(C)C)NC(=O)[C@H](CC(C)C)NC(=O)[C@@H]5C[C@@H](O)CN5C4=O)C(=O)N[C@@H](CC(C)C)C(=O)N[C@@H](Cc4c[nH]cn4)C(=O)N4CCC[C@H]4C(=O)N[C@H](CC(=O)O)C(=O)N[C@@H](Cc4c[nH]c5ccccc45)C(=O)N[C@@H](CCCCNC(=N)N)C(=O)N[C@H](C(N)=O)CSCCC6=O)nn3)C(N)=O)NC1=O)C(=O)CCSC[C@H](NC(=O)[C@H](C)NC(C)=O)C(=O)N[C@@H]([C@@H](C)CC)C(=O)N[C@@H](CCC(=O)O)C(=O)N[C@@H](CCC(=O)O)C(=O)NCC(=O)N[C@@H](CCC(N)=O)C(=O)N[C@@H](Cc1ccc(O)cc1)C(=O)N2` [BCY8942] showed a Kd [3] of 853 nM and a fold induction at 0.1 µM [4] of less than 2.
With `CCCC[C@@H]1NC(=O)[C@H](Cc2ccc(O)cc2)NC(=O)[C@@H]2CCCN2C(=O)[C@H](CC(=O)O)NC(=O)[C@H](C)NC(=O)[C@H](Cc2ccccc2)NC(=O)[C@@H]2CSCCC(=O)N3CN(CN(C3)C(=O)CCSC[C@@H](C(=O)N[C@@H](C)C(N)=O)NC1=O)C(=O)CCSC[C@H](NC(C)=O)C(=O)N[C@@H](CC(C)(C)C)C(=O)N1CCC[C@H]1C(=O)N[C@@H](CCC(=O)O)C(=O)N[C@H](CCCCNC(=O)CCOCCOCCOCCOCCOCCn1cc(CCC(=O)NCCCC[C@@H]3NC(=O)[C@H](CCC(N)=O)NC(=O)[C@@H]4CSCCC(=O)N5CN(CN(C5)C(=O)CCSC[C@@H](C(=O)N5CCC[C@H]5C(=O)N[C@@H](CO)C(=O)N[C@@H](Cc5c[nH]cn5)C(N)=O)NC(=O)[C@H](CC(C)C)NC(=O)[C@H](Cc5c[nH]cn5)NC(=O)[C@H](CC(C)C)NC3=O)C(=O)CCSC[C@H](NC(=O)[C@H](CCCCN)NC(=O)[C@H](CC(=O)O)NC(=O)[C@H](CO)NC(C)=O)C(=O)N[C@@H](CO)C(=O)N[C@@H](C)C(=O)NCC(=O)N[C@@H](Cc3c[nH]c5ccccc35)C(=O)N[C@@H](CC(C)C)C(=O)N[C@@H]([C@@H](C)O)C(=O)N[C@@H](CCSC)C(=O)N4)nn1)C(=O)N1CCC[C@H]1C(=O)N[C@@H](Cc1ccc(O)cc1)C(=O)N2` [BCY11380] the “Fold Induction over Background” value [5] was 7 fold.
`CCCC[C@@H]1NC(=O)[C@H](Cc2ccc(O)cc2)NC(=O)[C@@H]2CCCN2C(=O)[C@H](CC(=O)O)NC(=O)[C@H](C)NC(=O)[C@H](Cc2ccccc2)NC(=O)[C@@H]2CSCCC(=O)N3CN(CN(C3)C(=O)CCSC[C@@H](C(=O)N[C@@H](CNC(=O)CCOCCOCCOCCOCCOCCn3cc(CCC(=O)NCCCC[C@@H]4NC(=O)[C@H](CCC(N)=O)NC(=O)[C@@H]5CSCCC(=O)N6CN(CN(C6)C(=O)CCSC[C@@H](C(=O)N6CCC[C@H]6C(=O)N[C@@H](CO)C(=O)N[C@@H](Cc6c[nH]cn6)C(N)=O)NC(=O)[C@H](CC(C)C)NC(=O)[C@H](Cc6c[nH]cn6)NC(=O)[C@H](CC(C)C)NC4=O)C(=O)CCSC[C@H](NC(=O)[C@H](CCCCN)NC(=O)[C@H](CC(=O)O)NC(=O)[C@H](CO)NC(C)=O)C(=O)N[C@@H](CO)C(=O)N[C@@H](C)C(=O)NCC(=O)N[C@@H](Cc4c[nH]c6ccccc46)C(=O)N[C@@H](CC(C)C)C(=O)N[C@@H]([C@@H](C)O)C(=O)N[C@@H](CCSC)C(=O)N5)nn3)C(N)=O)NC1=O)C(=O)CCSC[C@H](NC(C)=O)C(=O)N[C@@H](CC(C)(C)C)C(=O)N1CCC[C@H]1C(=O)N[C@@H](CCC(=O)O)C(=O)N[C@H](C)C(=O)N1CCC[C@H]1C(=O)N[C@@H](Cc1ccc(O)cc1)C(=O)N2` [BCY11381] showed a fold induction ([5]; read-out: Fold Induction over Background) of 7.
